Results taken from patent publication US20120253264A1, “PHOTOCHEMICAL INTERNALIZATION METHOD” (priority 2009, published 2012).
Read-outs that look alike come from different tables or passages of the source. Values belong to the compound of their own block, whether it stands above or below them.

Legend:
[1] = Stability of aqueous solutions of TPPS2a and TPCS2a salts at 40° C. for 31 days, analyzed by HPLC; format: physicochemical
Protocol: Aqueous solutions of TPPS2a salts (approx. 1% weight) were kept at 40° C. for 31 days. The solutions were analyzed by HPLC(HP 1100). The HPLC conditions were as follows:
Column: Agilent Extend C-18
Mobile phase: 85% methanol, 15% water
Detector: UV detector, 415 nm
Aqueous solutions of TPCS2a salts (approx. 1% weight) were kept at 40° C. for 31 days.

[2] = Solubility in water of TPPS2a and TPCS2a salts (water added in 0.2 ml portions to approx. 50 mg)
From the text: (§1) The mixture was agitated until solid particles were broken up and dissolved.
as §1

[3] = TPPS2a salts, aqueous solution approx. 1% weight, 40° C., 31 days, HPLC UV 415 nm

Compound: NCCO.NCCO.O=S(=O)(O)c1ccc(-c2c3nc(c(-c4ccc(S(=O)(=O)O)cc4)c4ccc([nH]4)c(-c4ccccc4)c4nc(c(-c5ccccc5)c5ccc2[nH]5)C=C4)C=C3)cc1 [Example 1, Meso-Tetraphenyl Porphyrin Disulphonate Bis(Monoethanolamine)]
Degradation [1, 3]: No degradation

Minimum solubility in water [2]: 89.7 mg/mL | Degradation [1]: No degradation
Compound: CNCC(O)C(O)C(O)C(O)CO.CNCC(O)C(O)C(O)C(O)CO.O=S(=O)(O)c1ccc(-c2c3nc(c(-c4ccccc4)c4ccc([nH]4)c(-c4ccccc4)c4nc(c(-c5ccc(S(=O)(=O)O)cc5)c5ccc2[nH]5)C=C4)C=C3)cc1 [Example 2, Meso-Tetraphenyl Porphyrin Disulphonate Bis(Meglumate)]

Degradation [1]: No degradation
Compound: O=S(=O)(O)c1ccc(-c2c3nc(c(-c4ccccc4)c4ccc([nH]4)c(-c4ccccc4)c4nc(c(-c5ccc(S(=O)(=O)O)cc5)c5ccc2[nH]5)C=C4)C=C3)cc1.OCCNCCO.OCCNCCO [Example 4, Meso-Tetraphenyl Porphyrin Disulphonate Bis(Diethanolamine)]

Compound: O=S(=O)(O)c1ccc(-c2c3nc(c(-c4ccc(S(=O)(=O)O)cc4)c4ccc([nH]4)c(-c4ccccc4)c4nc(c(-c5ccccc5)c5ccc2[nH]5)C=C4)C=C3)cc1.OCCN1CCCC1.OCCN1CCCC1 [Example 5, Meso-Tetraphenyl Porphyrin Disulphonate Bis(1-(2-Hydroxyethyl)Pyrrolidine)]
Degradation [1]: No degradation

Compound: O=S(=O)(O)c1ccc(-c2c3nc(c(-c4ccc(S(=O)(=O)O)cc4)c4ccc([nH]4)c(-c4ccccc4)c4nc(c(-c5ccccc5)c5ccc2[nH]5)C=C4)C=C3)cc1.OCCN(CCO)CCO.OCCN(CCO)CCO [Example 6, Meso-Tetraphenyl Porphyrin Disulphonate Bis(Triethanolamine)]
Degradation [1, 3]: No degradation

Compound: Meso-Tetraphenyl Chlorin Disulphonate Bis(Meglumate) [Example 8]
Minimum solubility in water ([2]; TPCS2a salts, water added in 0.2 ml portions to approx. 50 mg until dissolved): 38.9 mg/mL | Degradation ([1]; TPCS2a salts, aqueous solution approx. 1% weight, 40° C., 31 days, HPLC): No degradation

Degradation [1]: No degradation
Compound: Meso-Tetraphenyl Chlorin Disulphonate Bis(Monoethanolamine) [Example 7]
